Where two headings read alike, the source gives them in different places.
Legend:
[1] = molecular target: Recombinant ROCK2 (amino acids 1-552) (Homo sapiens (Human), UniProt O75116); assay: Z′-Lyte kinase assay, ROCK2; type: biochemical; settings: for inhibition at 1 µM: 1 μM compound; for inhibition at 1 µM / inhibition at 0.5 µM: read-out: ROCK2 % inh. @ [conc]; for inhibition at 0.5 µM: 0.5 μM compound
Method: Determination of Compound's ROCK Inhibitory Activity In Vitro (Z'Lyte Assay).
Recombinant ROCK1 (amino acids 1-535) and ROCK2 (amino acids 1-552) proteins were purchased from ThermoFisher Scientific. Compound's activities were measured by Z′-lyte kinase kit (ThermoFisher Scientific) and IC50 was calculated
(§1) In vitro activities for the compounds were measured with Z′-lyte kinase kit (ThermoFisher Scientific). The percent inhibition rate was calculated by normalizing the kinase activity value obtained with 1 μM compound treatment against DMSO control value and then applied to the formula, [1-(compound/DMSO)]×100%. IC50s were calculated using the nonlinear regression curve fit function of the GraphPad Prism software with kinase activities data measured with 9 points 2-fold serial dilution of compounds treatment. In cell pMLC IC50s were calculated with data obtained from A7R5 cell experiments. A7R5 cells were treated with 9 points 2-fold serial dilution of compounds and ppMlc (T18/S19) levels were determined to calculate cellular IC50 values of the compounds using the nonlinear regression curve fit function of the GraphPad Prism software. NIH3T3 cells stably expressing ACTA2-promoter-driven-luciferase were applied to measure ROCK compounds functional IC50s in cells. Cells were plated in 96 well plates to confluence and treated with 9 points serial dilution of compounds in combination with TGFβ1 for 24 hr. Luciferase activities were measured and compound's IC50s were calculated using the nonlinear regression curve fit function of the GraphPad Prism software.

[2] = tested on: ppMlc (T18/S19) levels in A7R5 cells; assay: A7R5 in-cell ELISA (pMLC); type: cell-based, Rat; settings: for inhibition at 10 µM / IC50: Rattus norvegicus, A7R5, A7R5 cells; for inhibition at 10 µM: read-out: pMLC % inh A7R5 @ [conc]; for IC50: ppMlc (T18/S19)
Method: Determination of Compounds ROCK Inhibitory Activity in A7R5Cells.
Rat aortic smooth muscle cell line, A7R5, cells were seeded with density of 5,000 cells/well in a 96-well plates for 24 hours and subsequently treated for 90 min with testing compounds. Cells were then fixed and processed according to the In-Cell ELISA Colorimetric Detection Kit manual (Thermo Scientific).
An A7R5 in-cell Elisa assay was performed. A7R5 cells were treated with 9 points 2 fold serial dilution of compounds and ppMlc (T18/S19) levels were determined to calculate cellular IC50 values of the compounds. Compounds of the invention gave in cell IC50s under 100 nM.
as §1

Sequence of Recombinant ROCK2 (amino acids 1-552) (O75116 1-552): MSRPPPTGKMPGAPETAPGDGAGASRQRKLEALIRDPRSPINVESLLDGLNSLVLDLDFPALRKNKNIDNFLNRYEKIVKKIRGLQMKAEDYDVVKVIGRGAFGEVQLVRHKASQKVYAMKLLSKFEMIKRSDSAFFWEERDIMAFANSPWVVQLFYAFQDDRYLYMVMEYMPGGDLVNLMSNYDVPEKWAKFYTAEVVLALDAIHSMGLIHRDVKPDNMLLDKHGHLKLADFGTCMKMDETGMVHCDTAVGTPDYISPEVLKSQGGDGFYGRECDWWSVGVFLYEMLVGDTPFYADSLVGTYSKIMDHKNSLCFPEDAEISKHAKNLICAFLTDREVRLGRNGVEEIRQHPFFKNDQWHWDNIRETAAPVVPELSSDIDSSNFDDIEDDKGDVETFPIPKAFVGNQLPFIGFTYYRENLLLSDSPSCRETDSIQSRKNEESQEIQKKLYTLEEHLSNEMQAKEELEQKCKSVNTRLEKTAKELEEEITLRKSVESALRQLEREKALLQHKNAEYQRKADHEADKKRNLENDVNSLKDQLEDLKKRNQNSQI

Clc1cnc(N2CCCNCC2)nc1Nc1ccc2[nH]ncc2c1 [Example 4, N-(5-chloro-2-(1,4-diazepan-1-yl)pyrimidin-4-yl)-1H-indazol-5-amine]
IC50 ([1]; 9 points 2-fold serial dilution): 0.139 µM | inhibition at 10 µM ([2]; 10 μM compound): 95.3% | IC50 [2]: 312 nM

c1ccc2c(Nc3ccc4[nH]ncc4c3)nc(N3CCCNCC3)nc2c1 [Example 6, 2-(1,4-diazepan-1-yl)-N-(1H-indazol-5-yl)quinazolin-4-amine]
inhibition at 1 µM [1]: 85.7% | inhibition at 10 µM ([2]; 10 μM compound): 94.6% | IC50 [2]: 1800 nM

Cc1nc(N2CCCNCC2)nc(Nc2ccc3[nH]ncc3c2)c1C [Example 8, N-(2-(1,4-diazepan-1-yl)-5,6-dimethylpyrimidin-4-yl)-1H-indazol-5-amine]
inhibition at 1 µM [1]: 83.3% | inhibition at 10 µM ([2]; 10 μM compound): 89% | IC50 [2]: 1600 nM

c1cc2[nH]ncc2cc1Nc1nc(N2CCCNCC2)nc2c1CCCC2 [Example 9, 2-(1,4-diazepan-1-yl)-N-(1H-indazol-5-yl)-5,6,7,8-tetrahydroquinazolin-4-amine]
inhibition at 1 µM [1]: 98.7% | inhibition at 10 µM ([2]; 10 μM compound): 93.5% | IC50 [2]: 1200 nM

c1cc(Nc2ccc3[nH]ncc3c2)nc(N2CCOCC2)n1 [Example 33, N-(2-morpholinopyrimidin-4-yl)-1H-indazol-5-amine]
IC50 [1]: > 10 µM

Fc1cnc(N2CC(C3CCNCC3)c3ccccc32)nc1Nc1ccc2[nH]ncc2c1 (stereo not shown) [Example 175, N-(5-fluoro-2-(3-(piperidin-4-yl)indolin-1-yl)pyrimidin-4-yl)-1H-indazol-5-amine]
inhibition at 1 µM [1]: 10.5%

OC1CC2CCC(C1)N2c1nccc(Nc2ccc3[nH]ncc3c2)n1 (stereo not shown) [Example 223, 8-(4-((1H-indazol-5-yl)amino)pyrimidin-2-yl)-8-azabicyclo[3.2.1]octan-3-ol]
IC50 [1]: 0.0158 µM

c1ccc(C2CN(c3nccc(Nc4ccc(-c5cn[nH]c5)cc4)n3)CCN2)cc1 (stereo not shown) [Example 260, N-(4-(1H-pyrazol-4-yl)phenyl)-2-(3-phenylpiperazin-1-yl)pyrimidin-4-amine]
inhibition at 10 µM ([2]; 10 μM compound): 18%

c1cc(-c2cn[nH]c2)ccc1Nc1nc(N2CCCNCC2)nc2c1COC2 [Example 262, N-(4-(1H-pyrazol-4-yl)phenyl)-2-(1,4-diazepan-1-yl)-5,7-dihydrofuro[3,4-d]pyrimidin-4-amine]
inhibition at 10 µM ([2]; 10 μM compound): 87% | IC50 [2]: 3650 nM

Cc1nc(N2CCCNCC2)nc(Nc2ccc(-c3cn[nH]c3)cc2)c1C [Example 266, N-(4-(1H-pyrazol-4-yl)phenyl)-2-(1,4-diazepan-1-yl)-5,6-dimethylpyrimidin-4-amine]
inhibition at 10 µM ([2]; 10 μM compound): 74% | IC50 [2]: 3150 nM

c1ccc2c(Nc3ccc(-c4cn[nH]c4)cc3)nc(N3CCCNCC3)nc2c1 [Example 268, N-(4-(1H-pyrazol-4-yl)phenyl)-2-(1,4-diazepan-1-yl)quinazolin-4-amine]
inhibition at 10 µM ([2]; 10 μM compound): 63.7% | IC50 [2]: 3720 nM

c1cc(-c2ccc(Nc3nc(N4C5CNCC4C5)nc4c3CNC4)cc2)ccn1 [Example 292, 2-(3,6-diazabicyclo[3.1.1]heptan-6-yl)-N-(4-(pyridin-4-yl)phenyl)-6,7-dihydro-5H-pyrrolo[3,4-d]pyrimidin-4-amine]
inhibition at 0.5 µM [1]: 10%

Cc1c(Nc2nc(N3C4CNCC3C4)ncc2Cl)ccc2[nH]ncc12 [Example 293, N-(2-(3,6-diazabicyclo[3.1.1]heptan-6-yl)-5-chloropyrimidin-4-yl)-4-methyl-1H-indazol-5-amine]
inhibition at 0.5 µM [1]: 1%

Cc1c(Nc2nc(N3C4CCC3CNC4)ncc2Cl)ccc2[nH]ncc12 [Example 294, N-(2-(3,8-diazabicyclo[3.2.1]octan-8-yl)-5-chloropyrimidin-4-yl)-4-methyl-1H-indazol-5-amine]
inhibition at 0.5 µM [1]: 0%

c1cc(-c2ccc(Nc3nc(N4C5CNCC4C5)nc4c3COCC4)cc2)ccn1 [Example 311, 2-(3,6-diazabicyclo[3.1.1]heptan-6-yl)-N-(4-(pyridin-4-yl)phenyl)-7,8-dihydro-5H-pyrano[4,3-d]pyrimidin-4-amine]
IC50 [1]: > 1 µM

c1cc(-c2ccc(Nc3nc(N4C5CNCC4C5)nc4c3COC4)cc2)ccn1 [Example 312, 2-(3,6-diazabicyclo[3.1.1]heptan-6-yl)-N-(4-(pyridin-4-yl)phenyl)-5,7-dihydrofuro[3,4-d]pyrimidin-4-amine]
IC50 [1]: > 1 µM

Cc1cc2[nH]ncc2cc1Nc1nc(N2C3CCC2CNC3)ncc1Cl [Example 318, N-(2-(3,8-diazabicyclo[3.2.1]octan-8-yl)-5-chloropyrimidin-4-yl)-6-methyl-1H-indazol-5-amine]
inhibition at 0.5 µM [1]: 50%

Clc1cnc(N2CC3CNCC(C2)O3)nc1Nc1ccc2[nH]ncc2c1 [Example 325, N-(2-((1,5)-9-oxa-3,7-diazabicyclo[3.3.1]nonan-3-yl)-5-chloropyrimidin-4-yl)-1H-indazol-5-amine]
inhibition at 0.5 µM [1]: 25%

c1ccc2c(Nc3ccc4[nH]ncc4c3)nc(N3C4CCC3CNC4)nc2c1 [Example 330, 2-(3,8-diazabicyclo[3.2.1]octan-8-yl)-N-(1H-indazol-5-yl)quinazolin-4-amine]
IC50 [1]: 0.011 µM

CN(C)C1CC2CC1CN2c1ncc(F)c(Nc2ccc3[nH]ncc3c2)n1 (stereo not shown) [Example 335, N-(2-(5-(dimethylamino)-2-azabicyclo[2.2.1]heptan-2-yl)-5-fluoropyrimidin-4-yl)-1H-indazol-5-amine]
IC50 [1]: > 1 µM

CN(C)C1CC2CCC(C1)N2c1nccc(Nc2ccc3[nH]ncc3c2)n1 (stereo not shown) [Example 337, N-(2-(3-(dimethylamino)-8-azabicyclo[3.2.1]octan-8-yl)pyrimidin-4-yl)-1H-indazol-5-amine]
IC50 [1]: > 1 µM

c1cc(Nc2ccnc(N3CCNCC3)n2)cc(-c2ccncc2)c1 [Example 345, 2-(piperazin-1-yl)-N-(3-(pyridin-4-yl)phenyl)pyrimidin-4-amine]
inhibition at 10 µM ([2]; 10 μM compound): 23.7%

O=c1ccc(-c2ccc(Nc3ccnc(N4CCNCC4)n3)cc2)c[nH]1 [Example 349, 5-(4-((2-(piperazin-1-yl)pyrimidin-4-yl)amino)phenyl)pyridin-2(1H)-one]
inhibition at 10 µM ([2]; 10 μM compound): 4.21%

Nc1nnc(-c2ccc(Nc3ccnc(N4CCNCC4)n3)cc2)o1 [Example 362, 5-(4-((2-(piperazin-1-yl)pyrimidin-4-yl)amino)phenyl)-1,3,4-oxadiazol-2-amine]
inhibition at 10 µM ([2]; 10 μM compound): 5.14%

c1cc(Nc2ccc(-c3cncs3)cc2)nc(N2CCNCC2)n1 [Example 363]
pMLC % inh A7R5 @ [conc] ([2]; A7R5 cells, 10 μM compound): 10.22%

O=c1[nH]c2ccc(Nc3ccnc(N4CCNCC4)n3)cc2[nH]1 [Example 364, 5-((2-(piperazin-1-yl)pyrimidin-4-yl)amino)-1,3-dihydro-2H-benzo[d]imidazol-2-one]
inhibition at 10 µM ([2]; 10 μM compound): 6.18%

c1cc(Nc2ccc(-c3ccnc4[nH]cnc34)cc2)nc(N2CCNCC2)n1 [Example 366, N-(4-(3H-imidazo[4,5-b]pyridin-7-yl)phenyl)-2-(piperazin-1-yl)pyrimidin-4-amine]
inhibition at 10 µM ([2]; 10 μM compound): 4.95%

c1cc(Nc2ccc(-c3nnco3)cc2)nc(N2CCNCC2)n1 [Example 367, N-(4-(1,3,4-oxadiazol-2-yl)phenyl)-2-(piperazin-1-yl)pyrimidin-4-amine]
inhibition at 10 µM ([2]; 10 μM compound): 7.2%

c1cc(Nc2cnc3[nH]ccc3c2)nc(N2CCNCC2)n1 [Example 369, N-(2-(piperazin-1-yl)pyrimidin-4-yl)-1H-pyrrolo[2,3-b]pyridin-5-amine]
inhibition at 10 µM ([2]; 10 μM compound): 0.9%
